According to US20070065805A1, “Cell migration assay” (GE Healthcare Bio-Sciences Corp., priority 2005, published 2007):
“Also recorded” adds a separate entry of the source.

Columns and labels:
[1] = tested on: neutrophil TEM; experiment: Neutrophil transendothelial migration (TEM) assay, 96-well collagen gel/HUVEC monolayer; format: cell-based, human; settings: for Inhibition of neutrophil TEM: neutrophil pre-treated with inhibitor (1, 10-phenathronoline 12-1000 μM) for 0.5 hour, inhibitor present throughout the TEM assay, migrated cells counted at Z: 60 μm (FIG. 10)
Method: (§1) A 96-well plate (ViewPlate™, PerkinElmer Life and Analytical Sciences) was set on ice and 40 μl of gel (2.5 mg/ml) was dispensed into each well using stepper repeat pipette (500 or 1000 tip). The plate was spun at 1,500 rpm for 2 min at 4° C. The gel was solidified at 37° C. in a CO2-free incubator to establish a thick layer (200 μm) of collagen gel onto a well of 96-well plate. The following TEM assays were performed using collagen gel prepared in this manner.
The layer of collagen gel in each well was coated with 200 μl of 1 μg/ml human fibronectin (BD Biosciences) in serum-free EGM-2 medium for 1 hour at room temperature. After removal of the fibronectin containing-medium, HUVEC cells (CAMBREX) were seeded onto the gel and cultured in the EGM-2 medium for 3 days, at 37° C., and at a concentration of 40,000 cells/well. The cells were chosen from early passage (3rd to 4th), 70-80% confluent HUVEC cell cultures. The day before the assay, the HUVEC culture medium was replaced with either fresh EGM-2 medium alone, or the fresh EGM-2 medium containing 10 ng/ml IL-1 β (or TNF-α, or other chemoattractants). The mixture was incubated overnight to stimulate TEM.
Neutrophil or peripheral blood mononuclear cells (PBMC) were freshly isolated from blood Buffy coat. Briefly, RBC were removed using dextran sedimentation. Then PBMC were isolated by Ficoll-Hypaque centrifugation. Neutrophils were purified by hypotonic lysis of remaining RBC in the pellet of Ficoll-Hypaque centrifugation. The cells were labelled with CellTracker™ Green, by incubation in 0.5 to 1 μm dye in RPMI for 45 min at 37° C. The dye containing RPMI was removed and the cells washed once with serum-free RPMI medium. The cells were re-suspended in RPMI containing 0.2% HAS (assay medium) at 2.5×10^6 cells/ml.
On the assay day, the culture medium for the HUVEC cell culture was removed and the HUVEC monolayer washed 2 times with PBS and once with assay medium (0.2% of HAS in RPMI). 500,000 (200 μl) neutrophil or PBMC, which were CellTracker™ Green labelled, were placed on top of the HUVEC monolayer in each well. The assay was incubated further at 37° C. The length of time for the incubation is primary cell type dependent. For neutrophil, incubation time is within 2 hours and for PBMC, from 6 to 10 hours may be required.
After the required incubation time, images of neutrophil/PBMC cells which had migrated below the HUVEC layer were acquired. Often, it is sufficient to acquire images at a single Z position and quantify the number of migrated cells in the gel at targeted Z position. As an example, images at the 120 μm Z plane were quantified using the Z-slicing feature of IN Cell Analyzer 3000 (GE Healthcare). Images were analysed using the Object Intensity analysis module. The experiments were repeated multiple times, such that each data point—in the Figures—represents mean plus/minus standard deviation of 6 replicate wells, one Z plane of image/well.
Prior to the TEM assay, neutrophil were pre-treated with 1, 10-phenathronoline, a MMP-9 inhibitor (12-1000 μM) for 0.5 hour. The inhibitor was continuously present throughout the TEM assay. […] Each data point in FIG. 10 represents mean plus/minus SD of 6 replicate wells, one image/well at Z: 60 μm.

[2] = tested on: PBMC TEM; experiment: PBMC transendothelial migration (TEM) assay, 96-well collagen gel/HUVEC monolayer; format: cell-based, human; settings: HUVEC incubated overnight with 10 ng/ml IL-1 β
Method: as §1
The layer of collagen gel in each well was coated with 200 μl of 1 μg/ml human fibronectin (BD Biosciences) in serum-free EGM-2 medium for 1 hour at room temperature. After removal of the fibronectin containing-medium, HUVEC cells (CAMBREX) were seeded onto the gel and cultured in the EGM-2 medium for 3 days, at 37° C., and at a concentration of 40,000 cells/well. The cells were chosen from early passage (3rd to 4th), 70-80% confluent HUVEC cell cultures. […]
After the required incubation time, images of neutrophil/PBMC cells which had migrated below the HUVEC layer were acquired. Often, it is sufficient to acquire images at a single Z position and quantify the number of migrated cells in the gel at targeted Z position. As an example, images at the 120 μm Z plane were quantified using the Z-slicing feature of IN Cell Analyzer 3000 (GE Healthcare). Images were analysed using the Object Intensity analysis module. […]

c1cnc2c(c1)ccc1cccnc12 [1, 10-phenathronoline, reference compound]
Inhibition of neutrophil TEM [1]: inhibits neutrophil TEM; also recorded: Inhibition of neutrophil TEM

C[C@H]1c2cccc(O)c2C(O)=C2C(=O)[C@]3(O)C(O)=C(C(N)=O)C(=O)[C@@H](N(C)C)[C@@H]3[C@@H](O)[C@@H]21 [doxycyclin, reference compound]
Inhibition of neutrophil TEM [1]: showed to inhibit TEM

Interleukin-1-beta [IL-1β]
Stimulation of neutrophil TEM ([1]; HUVEC incubated overnight with 10 ng/ml IL-1 β): potentiate transendothelial migration of both cell types | Time for neutrophil TEM to reach a significant signal to noise ratio (IL-1β stimulated vs. non-stimulated) ([1]; migrated cells quantified at Z: 120 μm, FIG. 7): 0.5 to 2 h | Stimulation of PBMC TEM [2]: potentiate transendothelial migration of both cell types

Interleukin-8 [IL-8]
Effect of IL-8 soaking on neutrophil TEM ([1]; collagen gel pre-soaked with culture medium containing IL-8 at 200 ng/ml for 4 hours): increase of neutrophil TEM; also recorded: generates a TEM effect similar to that of IL-1 β activation of HUVEC
